According to ChEMBL document CHEMBL2311454, “Discovery and evaluation of novel inhibitors of mycobacterium protein tyrosine phosphatase B from the 6-Hydroxy-benzofuran-5-carboxylic acid scaffold” (J Med Chem, 2013):
Calls of active or inactive are those of the source. The rule behind the calls is not given here.

What was measured:
[1] = target: T1, Tyrosine-protein phosphatase non-receptor type 11 (Homo sapiens, UniProt Q06124); assay: Inhibition of SHP2 (unknown origin) expressed in Escherichia coli using pNPP substrate after 5 mins by spectrophotometric analysis
T1 sequence (Q06124 whole entry): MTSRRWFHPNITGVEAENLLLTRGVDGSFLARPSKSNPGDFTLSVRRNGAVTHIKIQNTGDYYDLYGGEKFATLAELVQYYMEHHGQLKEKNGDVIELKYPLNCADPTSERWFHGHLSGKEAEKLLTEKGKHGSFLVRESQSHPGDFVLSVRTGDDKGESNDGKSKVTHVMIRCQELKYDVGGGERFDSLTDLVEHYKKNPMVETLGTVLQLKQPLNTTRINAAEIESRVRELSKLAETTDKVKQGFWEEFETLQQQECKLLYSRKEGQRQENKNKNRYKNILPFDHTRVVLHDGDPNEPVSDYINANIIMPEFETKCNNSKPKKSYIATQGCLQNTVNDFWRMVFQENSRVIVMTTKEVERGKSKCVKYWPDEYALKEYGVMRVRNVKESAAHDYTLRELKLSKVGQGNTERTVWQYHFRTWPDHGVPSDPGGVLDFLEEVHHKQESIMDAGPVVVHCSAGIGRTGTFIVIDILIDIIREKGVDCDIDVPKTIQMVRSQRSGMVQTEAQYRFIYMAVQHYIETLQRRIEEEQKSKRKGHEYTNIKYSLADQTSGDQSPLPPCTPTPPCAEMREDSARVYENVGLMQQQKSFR

[2] = target: Tyrosine-protein phosphatase non-receptor type 6 (Homo sapiens, UniProt P29350); assay: Inhibition of SHP1 (unknown origin) expressed in Escherichia coli using pNPP substrate after 5 mins by spectrophotometric analysis
[3] = target: T2, Tyrosine-protein phosphatase non-receptor type 2 (Homo sapiens, UniProt P17706); assay: Inhibition of TCPTP (unknown origin) expressed in Escherichia coli using pNPP substrate after 5 mins by spectrophotometric analysis
T2 sequence (P17706 whole entry): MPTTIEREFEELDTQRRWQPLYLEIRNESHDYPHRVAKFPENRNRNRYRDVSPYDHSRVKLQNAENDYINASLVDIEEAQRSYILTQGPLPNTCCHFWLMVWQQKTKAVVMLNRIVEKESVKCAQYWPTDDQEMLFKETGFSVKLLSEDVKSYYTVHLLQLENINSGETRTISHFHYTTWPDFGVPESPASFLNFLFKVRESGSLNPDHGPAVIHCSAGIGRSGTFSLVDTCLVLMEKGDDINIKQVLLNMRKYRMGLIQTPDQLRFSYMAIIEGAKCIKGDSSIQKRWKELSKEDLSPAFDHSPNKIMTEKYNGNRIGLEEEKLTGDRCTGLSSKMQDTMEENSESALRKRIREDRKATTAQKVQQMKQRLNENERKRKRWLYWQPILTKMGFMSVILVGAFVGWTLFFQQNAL

[4] = Inhibition of Mycobacterium tuberculosis PTPB expressed in Escherichia coli using pNPP substrate after 5 mins by spectrophotometric analysis
[5] = target: Dual specificity protein phosphatase 3 (Homo sapiens, UniProt P51452); assay: Inhibition of VHR (unknown origin) expressed in Escherichia coli using pNPP substrate after 5 mins by spectrophotometric analysis
[6] = target: T3, Receptor-type tyrosine-protein phosphatase C (Homo sapiens, UniProt P08575); assay: Inhibition of CD45 (unknown origin) expressed in Escherichia coli using pNPP substrate after 5 mins by spectrophotometric analysis
T3 sequence (P08575 whole entry): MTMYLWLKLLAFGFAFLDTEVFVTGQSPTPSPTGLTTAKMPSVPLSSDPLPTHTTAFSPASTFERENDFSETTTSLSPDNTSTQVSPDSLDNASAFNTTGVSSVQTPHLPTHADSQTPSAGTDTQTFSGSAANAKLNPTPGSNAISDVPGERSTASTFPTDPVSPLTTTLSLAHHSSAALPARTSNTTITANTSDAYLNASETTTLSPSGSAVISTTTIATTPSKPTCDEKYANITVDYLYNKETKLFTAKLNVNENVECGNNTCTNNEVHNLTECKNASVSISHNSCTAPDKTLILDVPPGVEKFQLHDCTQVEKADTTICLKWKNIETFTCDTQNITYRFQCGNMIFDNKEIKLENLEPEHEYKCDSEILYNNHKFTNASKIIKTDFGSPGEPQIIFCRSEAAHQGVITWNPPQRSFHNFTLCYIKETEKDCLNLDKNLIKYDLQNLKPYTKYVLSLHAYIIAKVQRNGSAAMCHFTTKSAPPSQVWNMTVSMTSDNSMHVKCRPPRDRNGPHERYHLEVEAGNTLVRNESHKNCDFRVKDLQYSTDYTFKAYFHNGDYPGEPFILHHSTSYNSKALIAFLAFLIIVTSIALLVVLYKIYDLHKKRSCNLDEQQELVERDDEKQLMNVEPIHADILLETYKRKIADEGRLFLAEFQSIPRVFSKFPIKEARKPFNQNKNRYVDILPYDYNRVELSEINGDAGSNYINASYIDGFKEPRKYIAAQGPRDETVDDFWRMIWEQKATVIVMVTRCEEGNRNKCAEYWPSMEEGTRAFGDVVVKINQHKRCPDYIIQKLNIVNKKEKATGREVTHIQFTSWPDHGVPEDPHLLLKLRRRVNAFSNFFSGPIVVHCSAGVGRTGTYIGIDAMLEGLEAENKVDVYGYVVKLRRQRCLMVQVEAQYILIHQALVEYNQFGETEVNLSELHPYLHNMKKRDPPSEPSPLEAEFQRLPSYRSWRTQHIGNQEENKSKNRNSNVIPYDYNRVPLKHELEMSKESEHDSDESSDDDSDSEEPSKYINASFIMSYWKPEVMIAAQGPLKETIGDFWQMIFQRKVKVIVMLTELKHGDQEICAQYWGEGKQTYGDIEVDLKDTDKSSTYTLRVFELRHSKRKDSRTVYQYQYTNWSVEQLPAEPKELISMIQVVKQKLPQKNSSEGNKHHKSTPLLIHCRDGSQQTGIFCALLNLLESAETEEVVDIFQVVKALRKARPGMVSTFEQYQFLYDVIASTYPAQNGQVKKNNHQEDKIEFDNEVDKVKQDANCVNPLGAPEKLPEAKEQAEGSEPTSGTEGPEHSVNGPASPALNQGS

[7] = tested on: RAW264.7; assay: Inhibition of Mycobacterium tuberculosis PTPB expressed in mouse RAW264.7 macrophages assessed as induction of apoptosis after 1 hr by annexin V-FITC /propidium iodide staining-based flow cytometric analysis; format: cell-based
[8] = tested on: RAW264.7; assay: Inhibition of Mycobacterium tuberculosis PTPB expressed in mouse RAW264.7 macrophages assessed as increase in caspase activity after 1 hr by spectrophotometric analysis; format: cell-based
[9] = tested on: RAW264.7; assay: Inhibition of Mycobacterium tuberculosis PTPB expressed in mouse RAW264.7 macrophages assessed as decrease in Akt activity after 1 hr by Western blotting analysis; format: cell-based
[10] = tested on: Mycobacterium tuberculosis; assay: Inhibition of Mycobacterium tuberculosis PTPB expressed in mouse RAW264.7 macrophages assessed as restoration of IFNgamma-induced IL-6 production after 1 hr by ELISA
[11] = tested on: Mycobacterium tuberculosis; assay: Inhibition of Mycobacterium tuberculosis PTPB expressed in mouse RAW264.7 macrophages assessed as restoration of IFNgamma-induced p38 activation after 1 hr by Western blotting analysis

Chain of Dual specificity protein phosphatase 3 (P51452 whole entry): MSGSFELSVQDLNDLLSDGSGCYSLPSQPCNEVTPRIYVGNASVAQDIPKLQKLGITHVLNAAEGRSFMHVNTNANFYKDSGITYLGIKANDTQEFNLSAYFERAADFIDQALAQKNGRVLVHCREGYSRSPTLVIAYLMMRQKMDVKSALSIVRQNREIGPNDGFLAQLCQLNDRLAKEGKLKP
Chain of Tyrosine-protein phosphatase non-receptor type 6 (P29350 whole entry): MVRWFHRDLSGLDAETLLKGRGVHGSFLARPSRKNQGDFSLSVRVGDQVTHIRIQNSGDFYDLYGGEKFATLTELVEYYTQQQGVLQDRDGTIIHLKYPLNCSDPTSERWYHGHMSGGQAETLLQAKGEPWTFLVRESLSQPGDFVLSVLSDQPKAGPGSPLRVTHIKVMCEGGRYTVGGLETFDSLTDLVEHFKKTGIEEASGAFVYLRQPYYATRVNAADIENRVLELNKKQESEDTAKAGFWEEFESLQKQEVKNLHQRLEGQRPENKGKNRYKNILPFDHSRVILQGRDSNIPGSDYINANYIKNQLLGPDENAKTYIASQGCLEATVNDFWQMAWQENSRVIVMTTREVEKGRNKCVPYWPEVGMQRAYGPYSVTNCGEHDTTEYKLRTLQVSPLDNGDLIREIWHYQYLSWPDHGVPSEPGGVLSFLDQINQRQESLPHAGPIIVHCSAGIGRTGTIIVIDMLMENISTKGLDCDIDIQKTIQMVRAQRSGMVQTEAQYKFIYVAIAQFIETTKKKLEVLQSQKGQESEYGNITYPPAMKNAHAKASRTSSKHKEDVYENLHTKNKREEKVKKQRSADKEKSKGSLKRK

| Structure (SMILES) | IC50 [1] [µM] | IC50 [2] [µM] | IC50 [3] [µM] | IC50 [4] [µM] | IC50 [5] [µM] | IC50 [6] [µM] | inhibition [7] | inhibition [8] | inhibition [9] | inhibition [10] | inhibition [11] |
| --- | --- | --- | --- | --- | --- | --- | --- | --- | --- | --- | --- |
| C[C@]12CCC(=O)C=C1CC[C@@H]1[C@@H]2CC[C@@]2(C)[C@H]1CC[C@]2(O)C#Cc1c(-c2ccccc2)oc2cc(O)c(C(=O)O)cc12 | 30 | > 100 | > 50 | 5.09 | > 100 | > 100 |  |  |  |  |  |
| O=C(O)c1cc2c(CCc3cccc(F)c3)c(-c3ccccc3)oc2cc1O | 10.9 | 11.5 | 33 |  | 22 | 120 |  |  |  |  |  |
| O=C(O)c1cc2c(CCc3ccc(Oc4ccccc4)cc3)c(-c3ccccc3)oc2cc1O | 3.6 | 3.7 | 11.8 |  | 6.3 | 14.2 |  |  |  |  |  |
| C#Cc1c(-c2ccccc2)oc2cc(O)c(C(=O)O)cc12 | 31 | > 50 | > 50 |  | > 50 | 80 |  |  |  |  |  |
| O=C(O)c1cc2c(/C=C\c3cc(F)cc(F)c3)c(-c3ccccc3)oc2cc1O | 5 |  | 9.5 | 1.2 | 8.6 | 13.1 |  |  |  |  |  |
| O=C(O)c1cc2c(CCc3cccc(C(F)(F)F)c3)c(-c3ccccc3)oc2cc1O | 4.5 |  | 10 |  | 6.2 | 10.1 |  |  |  |  |  |
| O=C(O)c1cc2c(C#CCO)c(-c3ccccc3)oc2cc1O | > 100 | > 100 | > 100 | 22 | > 100 | > 100 |  |  |  |  |  |
| O=C(O)c1cc2c(CCc3ccc(OC(F)(F)F)cc3)c(-c3ccccc3)oc2cc1O |  | 7.1 | 8.9 | 3.4 | 6.7 | 18.9 | inactive | inactive | inactive | inactive | inactive |
